Reference: the NIST ThermoML archive (doi:10.1016/j.jct.2015.01.001)
Where “and” joins values, the source holds several entries; their conditions need not be identical. Equal entries are not always repeated. ± gives the expanded uncertainty stated by the source.

Experiments:
[1] = xn = mol fraction of the nth substance listed; conditions: Liquid; for viscosity: Falling or rolling sphere viscometry; for mass density: Vibrating tube method
[2] = Liquid; for vapor or sublimation pressure: Closed cell (Static) method; for viscosity: Falling or rolling sphere viscometry; for mass density: Vibrating tube method

O=C=O [carbon dioxide] + CO
[1]
Conditions | mass density [kg/m3] | viscosity [mPa·s]
298.15 K, 467.6 kPa, x1 = 0.037 | 792.7 ± 1 | 0.523 ± 0.05
298.15 K, 1827.6 kPa, x1 = 0.155 | 811.4 ± 1.1 | 0.45 ± 0.05
298.15 K, 2059.2 kPa, x1 = 0.176 | 814.6 ± 1.1 | 0.436 ± 0.05
298.15 K, 2411.7 kPa, x1 = 0.207 | 819.5 ± 1.1 | 0.418 ± 0.05
298.15 K, 2609.8 kPa, x1 = 0.225 | 822.2 ± 1.1 | 0.407 ± 0.05
298.15 K, 3070.8 kPa, x1 = 0.268 | 828.6 ± 1.2 | 0.383 ± 0.05
303.15 K, 514.4 kPa, x1 = 0.034 | 787 ± 1 | 0.497 ± 0.05
303.15 K, 1357.8 kPa, x1 = 0.099 | 796.3 ± 1 | 0.459 ± 0.05
303.15 K, 2202.1 kPa, x1 = 0.164 | 805.7 ± 1.1 | 0.421 ± 0.05
303.15 K, 2582.4 kPa, x1 = 0.194 | 809.9 ± 1.1 | 0.403 ± 0.05
303.15 K, 2803.7 kPa, x1 = 0.212 | 812.4 ± 1.1 | 0.392 ± 0.05
303.15 K, 3272.7 kPa, x1 = 0.249 | 817.7 ± 1.1 | 0.37 ± 0.05
308.15 K, 543.8 kPa, x1 = 0.032 | 783.2 ± 1 | 0.467 ± 0.05
308.15 K, 1454.6 kPa, x1 = 0.094 | 791.6 ± 1 | 0.434 ± 0.051
308.15 K, 2129.6 kPa, x1 = 0.14 | 797.9 ± 1 | 0.408 ± 0.05
308.15 K, 2391.6 kPa, x1 = 0.158 | 800.3 ± 1.1 | 0.398 ± 0.05
308.15 K, 2760.3 kPa, x1 = 0.184 | 803.7 ± 1.1 | 0.385 ± 0.05
308.15 K, 3001.7 kPa, x1 = 0.201 | 806 ± 1.1 | 0.375 ± 0.05
308.15 K, 3529.4 kPa, x1 = 0.238 | 810.9 ± 1.1 | 0.356 ± 0.05
313.15 K, 629.5 kPa, x1 = 0.031 | 777.5 ± 1 | 0.443 ± 0.05
313.15 K, 1587.2 kPa, x1 = 0.091 | 787.1 ± 1 | 0.41 ± 0.05
313.15 K, 2265.6 kPa, x1 = 0.133 | 793.6 ± 1 | 0.39 ± 0.05
313.15 K, 2523.6 kPa, x1 = 0.149 | 796 ± 1.1 | 0.378 ± 0.05
313.15 K, 2943.3 kPa, x1 = 0.175 | 800.1 ± 1.1 | 0.368 ± 0.05
313.15 K, 3205.9 kPa, x1 = 0.191 | 802.6 ± 1.1 | 0.356 ± 0.05
313.15 K, 3774.9 kPa, x1 = 0.227 | 808 ± 1.1 | 0.337 ± 0.05

CO [methanol]
[2]
Conditions | mass density [kg/m3] | vapor or sublimation pressure [kPa] | viscosity [mPa·s]
298.15 K | 786.7 ± 1 | 17 ± 0.4 | 0.544 ± 0.05
303.15 K | 782 ± 1 | 21.9 ± 0.4 | 0.512 ± 0.05
308.15 K | 777.3 ± 1 | 27.9 ± 0.4 | 0.486 ± 0.05
313.15 K | 772.5 ± 1 | 35.6 ± 0.4 | 0.46 ± 0.05

CO [methanol] + O=C=O
[1], x2 = 0
Conditions | mass density [kg/m3] | viscosity [mPa·s]
298.15 K, 17 kPa | 786.7 ± 1 | 0.544 ± 0.05
303.15 K, 21.9 kPa | 782 ± 1 | 0.512 ± 0.05
308.15 K, 27.9 kPa | 777.3 ± 1 | 0.486 ± 0.05
313.15 K, 35.6 kPa | 772.5 ± 1 | 0.46 ± 0.05

O=S1(=O)CCCC1 [sulfolane]
[2]
Conditions | mass density [kg/m3] | viscosity
303.15 K | 1262 ± 1 | 10.3 ± 0.3 mPa·s and 10.2 ± 0.3 mPa·s
313.15 K | 1253 ± 1 | 8.01 ± 0.21 mPa·s
323.15 K | 1244 ± 1 | 6.32 ± 0.17 mPa·s
333.15 K | 1235 ± 1 | 5.16 ± 0.14 mPa·s
343.15 K | 1226 ± 1 | 4.22 ± 0.11 mPa·s
353.15 K | 1218 ± 1 | 3.5 ± 0.1 mPa·s
363.15 K | 1209 ± 1 | 2.92 ± 0.07 mPa·s
